Measured values from PubChem BioAssay AID2060605 (Molecular Pharmacology Branch, DTP, NCI, 2025).
“And” between values parts separate entries of the source, which are not always exact repeats. Equal entries are not always repeated.

System: 947758-054-R-J2-PDC spheroid growth, percent test/control
Test: Anticancer human tumor 947758-054-R-J2-PDC patient-derived colon adenocarcinoma cell line growth inhibition [CLK]
Conditions: spheroids with HUVEC and MSC; for viability, T/C: stronger effect = lower value
In short: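 Multi-cell-type spheroids combined patient-derived tumor cells with HUVEC endothelial cells and human mesenchymal stem cells. Paired agents were dosed in half-log steps down from about clinical Cmax, or from 10 microM where Cmax was unknown.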

[1] = curve of first compound, second compound 0.0316 µM
[2] = curve of first compound, second compound 0.1 µM
[3] = curve of first compound, second compound 0.316 µM
[4] = curve of first compound, second compound 1 µM
[5] = curve of first compound, second compound 3.16 µM
[6] = curve of first compound, second compound 10 µM
[7] = second compound 0.0316 µM, first compound 0.0316 µM
[8] = second compound 0.0316 µM, first compound 0.1 µM
[9] = second compound 0.0316 µM, first compound 0.316 µM
[10] = second compound 0.0316 µM, first compound 1 µM
[11] = second compound 0.0316 µM, first compound 3.16 µM
[12] = second compound 0.0316 µM, first compound 10 µM
[13] = second compound 0.1 µM, first compound 0.0316 µM
[14] = second compound 0.1 µM, first compound 0.1 µM
[15] = second compound 0.1 µM, first compound 0.316 µM
[16] = second compound 0.1 µM, first compound 1 µM
[17] = second compound 0.1 µM, first compound 3.16 µM
[18] = second compound 0.1 µM, first compound 10 µM
[19] = second compound 0.316 µM, first compound 0.0316 µM
[20] = second compound 0.316 µM, first compound 0.1 µM
[21] = second compound 0.316 µM, first compound 0.316 µM
[22] = second compound 0.316 µM, first compound 1 µM
[23] = second compound 0.316 µM, first compound 3.16 µM
[24] = second compound 0.316 µM, first compound 10 µM
[25] = second compound 1 µM, first compound 0.0316 µM
[26] = second compound 1 µM, first compound 0.1 µM
[27] = second compound 1 µM, first compound 0.316 µM
[28] = second compound 1 µM, first compound 1 µM
[29] = second compound 1 µM, first compound 3.16 µM
[30] = second compound 1 µM, first compound 10 µM
[31] = second compound 3.16 µM, first compound 0.0316 µM
[32] = second compound 3.16 µM, first compound 0.1 µM
[33] = second compound 3.16 µM, first compound 0.316 µM
[34] = second compound 3.16 µM, first compound 1 µM
[35] = second compound 3.16 µM, first compound 3.16 µM
[36] = second compound 3.16 µM, first compound 10 µM
[37] = second compound 10 µM, first compound 0.0316 µM
[38] = second compound 10 µM, first compound 0.1 µM
[39] = second compound 10 µM, first compound 0.316 µM
[40] = second compound 10 µM, first compound 1 µM
[41] = second compound 10 µM, first compound 3.16 µM
[42] = second compound 10 µM, first compound 10 µM
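Note: spheroids exposed to compounds for one week before readout.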
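Throughout, for viability, T/C: 100% = DMSO vehicle control wells.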

`Nc1ccccc1NC(=O)c1ccc(CNC(=O)OCc2cccnc2)cc1` + CNC(=O)c1ccc(Nc2nc(OC3CCCC3)c3c(-c4ccc5nc(C)oc5c4)c[nH]c3n2)c(OC)c1 showed an IC50 [1] of 2230 nM, an IC50 [2] of 2520 nM and an IC50 [3] of 2510 nM. The IC50 [4] was 439 nM, the IC50 [5] was < 31.6 nM and the IC50 [6] was < 31.6 nM. It also gave a viability, T/C [7] of 89.6%, a viability, T/C [8] of 102% and a viability, T/C [9] of 122%. The viability, T/C [10] was 85.4%, the viability, T/C [11] was 34.2% and the viability, T/C [12] was 5.25%. It also gave a viability, T/C [13] of 85.4%, a viability, T/C [14] of 106% and a viability, T/C [15] of 111%. For the same compound, the viability, T/C [16] was 116%, the viability, T/C [17] was 36.7% and the viability, T/C [18] was 4.57%. For the same compound, the viability, T/C [19] was 112%, the viability, T/C [20] was 83.5% and the viability, T/C [21] was 91.3%. For the same compound, the viability, T/C [22] was 101%, the viability, T/C [23] was 38.3% and the viability, T/C [24] was 3.65%. For the same compound, the viability, T/C [25] was 64.5%, the viability, T/C [26] was 62.7% and the viability, T/C [27] was 43%. For the same compound, the viability, T/C [28] was 48.7%, the viability, T/C [29] was 26.7% and the viability, T/C [30] was 1.54%. The viability, T/C [31] was 49.2%, the viability, T/C [32] was 43.8% and the viability, T/C [33] was 44.5%. The viability, T/C [34] was 33.1%, the viability, T/C [35] was 16.2% and the viability, T/C [36] was 0.26%. The viability, T/C [37] was 38.8%, the viability, T/C [38] was 26.8% and the viability, T/C [39] was 31.8%. The viability, T/C [40] was 29.2%, the viability, T/C [41] was 4.69% and the viability, T/C [42] was 0.52%.
`CC(CO)NC(=O)c1cc(-c2ccc(Cl)cc2)nn(-c2cnn(C)c2)c1=O` (stereo unspecified) was tested, and the viability, T/C (compound 0.0316 µM) was 92.8% and 77.6%, the viability, T/C (compound 0.1 µM) was 84.2% and 87.1% and the viability, T/C (compound 0.316 µM) was 94.1% and 107%. For the same compound, the viability, T/C (compound 1 µM) was 97.6% and 75.3%, the viability, T/C (compound 3.16 µM) was 108% and 92.3% and the viability, T/C (compound 10 µM) was 112% and 114%. The IC50 (curve of compound) was > 10000 nM.
`O=C(c1cc(Cc2n[nH]c(=O)c3ccccc23)ccc1F)N1CCN(C(=O)C2CC2)CC1` + CN1CCN(c2cc(C(=O)Nc3cc4cc(-c5cnn(C)c5)ccc4cn3)ccn2)CC1 was tested, and the IC50 [1] was > 10000 nM, the IC50 [2] was > 10000 nM and the IC50 [3] was < 31.6 nM. For the same compound, the IC50 [4] was < 31.6 nM, the IC50 [5] was < 31.6 nM and the IC50 [6] was < 31.6 nM. It also gave a viability, T/C [7] of 137%, a viability, T/C [8] of 108% and a viability, T/C [9] of 127%. For the same compound, the viability, T/C [10] was 111%, the viability, T/C [11] was 139% and the viability, T/C [12] was 222%. The viability, T/C [13] was 173%, the viability, T/C [14] was 187% and the viability, T/C [15] was 179%. It also gave a viability, T/C [16] of 180%, a viability, T/C [17] of 206% and a viability, T/C [18] of 119%. The viability, T/C [19] was 3.05%, the viability, T/C [20] was 3.52% and the viability, T/C [21] was 3.12%. It also gave a viability, T/C [22] of 2.9%, a viability, T/C [23] of 2.97% and a viability, T/C [24] of 2.81%. It also gave a viability, T/C [25] of 0.13%, a viability, T/C [26] of 0.13% and a viability, T/C [27] of 0.15%. It also gave a viability, T/C [28] of 0.09%, a viability, T/C [29] of 0.15% and a viability, T/C [30] of 0.18%. The viability, T/C [31] was 0.14%, the viability, T/C [32] was 0.24% and the viability, T/C [33] was 0.22%. The viability, T/C [34] was 0.18%, the viability, T/C [35] was 0.73% and the viability, T/C [36] was 0.27%. The viability, T/C [37] was 0.31%, the viability, T/C [38] was 0.36% and the viability, T/C [39] was 0.95%. It also gave a viability, T/C [40] of 0.29%, a viability, T/C [41] of 0.44% and a viability, T/C [42] of 0.35%.
